# Source: patent US8501813B2, “γ-secretase inhibitor” (Kabushiki Kaisha Yakult Honsha, priority 2007, dated 2013)
# Target: γ-secretase (Homo sapiens, UniProt P49768)
# Assay: Substrate specificity: β-Alcα secretion by HEK293 cells transfected with FLAG Alcα C150, anti-FLAG immunoprecipitation/western blot
# Assay type: cell-based
# Conditions: 0.2 μmol/L; for activity at 0.2 µM: HEK293, 24 h, FLAG Alcα C150, negative control = 100%, read-out: (ii) β-Alcα secretion rate of HEK293 cells
# Method: Of families constituting human Alcadein (hereinafter, referred to as Alc) known as a substrate for γ-secretase to colocalize with APP in brain neurons, an artificial Alcα fragment (hereinafter, referred to as Alcα C150) whose first extracellular cleavage site and γ-secretase cleavage site were determined was used to study the substrate specificity of the γ-secretase inhibitor of the present invention. β-Alcα produced from a first cleavage construct of Alcα cannot be quantified by sELISA used in Aβ measurement. Therefore, proteins with an attached FLAG tag at the N termini of first cleavage constructs of Alcα and of C99 were expressed by cells. FLAG-Aβ-like peptides secreted into a medium were collected by immunoprecipitation using anti-FLAG antibodies and detected by western blotting using the antibodies. A specific method thereof is shown below.
# HEK293 cells (ATCC) (1×10^7 cells/10 cm dish) cultured in 6 ml of 10% FCS-containing DMEM (Wako Pure Chemical Industries, Ltd.) were transfected with FLAG APP C99 pcDNA3.1 (the nucleotide sequence of its coding region is shown in SEQ ID NO: 2) (J. Biol. Chem., 2003, 278, 49448-49458 (which was prepared from pcDNA3-APPC99)) or with FLAG Alcα C150 pcDNA3.1 (the nucleotide sequence of its coding region is shown in SEQ ID NO: 3) (J. Biol. Chem., 2004, 279, 24343-24354 (which was the same as pcDNA3AlcαΔE)) using Lipofectamine 2000 (Invitrogen Corp.) according to the protocol included in the reagent. Each inhibitor and a positive control (γ-Secretase Inhibitor IX (DAPT)) (Calbiochem Contact Information) were separately added at a concentration of 0.2 or 2 μmol/L. The same dose of DMSO (Wako Pure Chemical Industries, Ltd.) thereas was added as a negative control. 24 hours later, the culture supernatants were collected, and samples were preliminarily purified using beads (100 μL of 50% (v/v) Protein-G Sepharose (GE Healthcare)). Then, 15 μL of 50% (v/v) anti-FLAG antibody M2 beads (Sigma-Aldrich Corp.) were added thereto, and the samples were incubated at 4° C. for 1 hour. The beads were collected by centrifugation and washed three times with a buffer (10 mM Tris-HCl [pH 8.0], 140 mM NaCl, 0.1% n-octyl glucoside, 0.025% sodium azide), and Aβ and β-Alcα in the medium were collected. The proteins were subjected to SDS-PAGE using a 15% Tris-Tricine gel (Anal Biochem., 1987, 166 (2), 368-379) and then transferred to a membrane. The membrane was boiled for 5 minutes in PBS. Then, anti-FLAG M2 antibodies (5 μg/ml) (Sigma-Aldrich Corp.) were added thereto, and the membrane was incubated, followed by detection using a western blotting detection reagent ECL (GE Healthcare). This signal was quantified using Versa-doc system (Bio-Rad Laboratories, Inc.) to calculate protein secretion rates (the protein secretion rate of the negative control is defined as 100%).
SMILES,"γ cleavage of the Alcα-C150, in words",activity at 0.2 µM
"CSCCC(NC(=O)C(NC(=O)C(CC(C)C)CC(O)C(NC(=O)OC(C)(C)C)C(C)O)C(C)C)C(=O)NCc1ccccc1 [TLVM-5, [5S-(tert-butoxycarbonylamino)-4R,6R-dihydroxy-2R-(2-methylpropyl)heptanoyl]-L-valyl-L-methionine benzylamide]",did not inhibit,140%
"CCCCNC(=O)C(CCSC)NC(=O)C(NC(=O)C(CC(C)C)CC(O)C(NC(=O)OC(C)(C)C)C(C)O)C(C)C [TLVM-7, [5S-(tert-butoxycarbonylamino)-4R,6R-dihydroxy-2R-(2-methylpropyl)heptanoyl]-L-valyl-L-methionine n-butylamide]",did not inhibit,120%
"CSCCC(NC(=O)C(NC(=O)C(CC(C)C)CC(O)C(NC(=O)OC(C)(C)C)C(C)O)C(C)C)C(=O)NC(C)c1ccccc1 [TLVM-8, [5S-(tert-butoxycarbonylamino)-4R,6R-dihydroxy-2R-(2-methylpropyl)heptanoyl]-L-valyl-L-methionine (S)-α-methylbenzylamide]",did not inhibit,118%
"CSCCC(NC(=O)C(NC(=O)C(CC(C)C)CC(O)C(NC(=O)OC(C)(C)C)C(C)O)C(C)C)C(=O)NCc1ccc(F)cc1 [TLVM-9, [5S-(tert-butoxycarbonylamino)-4R,6R-dihydroxy-2R-(2-methylpropyl)heptanoyl]-L-valyl-L-methionine 4-fluorobenzylamide]",did not inhibit,158%
